From the NIST ThermoML archive (doi:10.1021/je700287u)

Assay: xn = mol fraction of the nth substance listed
Settings: Liquid

CN(CCO)CCO [N-methyldiethanolamine] + O
Settings | mass density [kg/m3]
313.12 K, 1001 kPa, x1 = 0.0369 | 1005.7
313.12 K, 2015 kPa, x1 = 0.0369 | 1006.1
313.12 K, 2986 kPa, x1 = 0.0369 | 1006.5
313.12 K, 3994 kPa, x1 = 0.0369 | 1006.9
313.12 K, 5003 kPa, x1 = 0.0369 | 1007.3
313.12 K, 6002 kPa, x1 = 0.0369 | 1007.7
313.12 K, 6994 kPa, x1 = 0.0369 | 1008.1
313.12 K, 7995 kPa, x1 = 0.0369 | 1008.5
313.12 K, 8996 kPa, x1 = 0.0369 | 1008.9
313.12 K, 9983 kPa, x1 = 0.0369 | 1009.3
313.12 K, 10989 kPa, x1 = 0.0369 | 1009.7
313.12 K, 11991 kPa, x1 = 0.0369 | 1010.1
313.12 K, 12991 kPa, x1 = 0.0369 | 1010.5
313.12 K, 13988 kPa, x1 = 0.0369 | 1010.9
313.12 K, 14989 kPa, x1 = 0.0369 | 1011.4
313.12 K, 15985 kPa, x1 = 0.0369 | 1011.7
313.12 K, 16984 kPa, x1 = 0.0369 | 1012.1
313.12 K, 17985 kPa, x1 = 0.0369 | 1012.5
313.12 K, 18989 kPa, x1 = 0.0369 | 1012.9
313.12 K, 19945 kPa, x1 = 0.0369 | 1013.3
313.13 K, 1003 kPa, x1 = 0.1302 | 1033.5
313.13 K, 1011 kPa, x1 = 0.0893 | 1025.9
313.13 K, 1993 kPa, x1 = 0.1302 | 1033.9
313.13 K, 1994 kPa, x1 = 0.0893 | 1026.2
313.13 K, 2999 kPa, x1 = 0.1302 | 1034.3
313.13 K, 3002 kPa, x1 = 0.0893 | 1026.6
313.13 K, 3994 kPa, x1 = 0.1302 | 1034.6
313.13 K, 3998 kPa, x1 = 0.0893 | 1027
313.13 K, 4984 kPa, x1 = 0.1302 | 1035
313.13 K, 4998 kPa, x1 = 0.0893 | 1027.4
313.13 K, 6001 kPa, x1 = 0.0893 | 1027.8
313.13 K, 6001 kPa, x1 = 0.1302 | 1035.4
313.13 K, 6993 kPa, x1 = 0.1302 | 1035.8
313.13 K, 6994 kPa, x1 = 0.0893 | 1028.1
313.13 K, 8000 kPa, x1 = 0.0893 | 1028.5
313.13 K, 8003 kPa, x1 = 0.1302 | 1036.1
313.13 K, 8996 kPa, x1 = 0.1302 | 1036.5
313.13 K, 8999 kPa, x1 = 0.0893 | 1028.9
313.13 K, 9989 kPa, x1 = 0.1302 | 1036.8
313.13 K, 9995 kPa, x1 = 0.0893 | 1029.2
313.13 K, 10983 kPa, x1 = 0.1302 | 1037.2
313.13 K, 10990 kPa, x1 = 0.0893 | 1029.6
313.13 K, 11992 kPa, x1 = 0.1302 | 1037.6
313.13 K, 12001 kPa, x1 = 0.0893 | 1030
313.13 K, 12980 kPa, x1 = 0.1302 | 1037.9
313.13 K, 12989 kPa, x1 = 0.0893 | 1030.3
313.13 K, 14000 kPa, x1 = 0.0893 | 1030.7
313.13 K, 14000 kPa, x1 = 0.1302 | 1038.3
313.13 K, 14999 kPa, x1 = 0.0893 | 1031.1
313.13 K, 15002 kPa, x1 = 0.1302 | 1038.7
313.13 K, 15995 kPa, x1 = 0.0893 | 1031.4
313.13 K, 16001 kPa, x1 = 0.1302 | 1039.1
313.13 K, 16998 kPa, x1 = 0.1302 | 1039.5
313.13 K, 17013 kPa, x1 = 0.0893 | 1031.8
313.13 K, 17991 kPa, x1 = 0.1302 | 1039.8
313.13 K, 17993 kPa, x1 = 0.0893 | 1032.2
313.13 K, 18991 kPa, x1 = 0.0893 | 1032.6
313.13 K, 18996 kPa, x1 = 0.1302 | 1040.2
313.13 K, 19990 kPa, x1 = 0.1302 | 1040.5
313.13 K, 19991 kPa, x1 = 0.0893 | 1032.9
313.14 K, 999 kPa, x1 = 0.0607 | 1018.1
313.14 K, 2000 kPa, x1 = 0.0607 | 1018.5
313.14 K, 3028 kPa, x1 = 0.0607 | 1018.9
313.14 K, 4020 kPa, x1 = 0.0607 | 1019.3
313.14 K, 5011 kPa, x1 = 0.0607 | 1019.7
313.14 K, 6015 kPa, x1 = 0.0607 | 1020.1
313.14 K, 7003 kPa, x1 = 0.0607 | 1020.4
313.14 K, 8009 kPa, x1 = 0.0607 | 1020.8
313.14 K, 9014 kPa, x1 = 0.0607 | 1021.2
313.14 K, 10000 kPa, x1 = 0.0607 | 1021.5
313.14 K, 10977 kPa, x1 = 0.0607 | 1022
313.14 K, 12029 kPa, x1 = 0.0607 | 1022.3
313.14 K, 13022 kPa, x1 = 0.0607 | 1022.7
313.14 K, 13988 kPa, x1 = 0.0607 | 1023
313.14 K, 15009 kPa, x1 = 0.0607 | 1023.4
313.14 K, 16003 kPa, x1 = 0.0607 | 1023.8
313.14 K, 16995 kPa, x1 = 0.0607 | 1024.2
313.14 K, 18007 kPa, x1 = 0.0607 | 1024.6
313.14 K, 19000 kPa, x1 = 0.0607 | 1024.9
313.14 K, 19950 kPa, x1 = 0.0607 | 1025.3
323.08 K, 1011 kPa, x1 = 0.0607 | 1012.5
323.08 K, 2015 kPa, x1 = 0.0607 | 1012.9
323.08 K, 3015 kPa, x1 = 0.0607 | 1013.2
323.08 K, 4025 kPa, x1 = 0.0607 | 1013.7
323.08 K, 4995 kPa, x1 = 0.0607 | 1014
323.08 K, 6015 kPa, x1 = 0.0607 | 1014.4
323.08 K, 7015 kPa, x1 = 0.0607 | 1014.8
323.08 K, 7992 kPa, x1 = 0.0607 | 1015.2
323.08 K, 9006 kPa, x1 = 0.0607 | 1015.6
323.08 K, 10014 kPa, x1 = 0.0607 | 1016
323.08 K, 11000 kPa, x1 = 0.0607 | 1016.3
323.08 K, 12064 kPa, x1 = 0.0607 | 1016.8
323.08 K, 13004 kPa, x1 = 0.0607 | 1017.1
323.08 K, 13990 kPa, x1 = 0.0607 | 1017.5
323.08 K, 14997 kPa, x1 = 0.0607 | 1017.9
323.08 K, 15999 kPa, x1 = 0.0607 | 1018.2
323.08 K, 16993 kPa, x1 = 0.0607 | 1018.6
323.08 K, 18008 kPa, x1 = 0.0607 | 1019
323.08 K, 19017 kPa, x1 = 0.0607 | 1019.4
323.08 K, 19961 kPa, x1 = 0.0607 | 1019.7
323.09 K, 1017 kPa, x1 = 0.1302 | 1026.6
323.09 K, 1034 kPa, x1 = 0.0369 | 1001.1
323.09 K, 2001 kPa, x1 = 0.1302 | 1027
323.09 K, 2004 kPa, x1 = 0.0369 | 1001.5
323.09 K, 2993 kPa, x1 = 0.0369 | 1001.9
